Assay results taken from patent US8586555B2, “Immunomodulatory compositions, formulations, and methods for use thereof” (Dynavax Technologies Corporation, priority 2001, dated 2013).

Columns and labels:
Format in all cases: cell-based
[1] = system: human peripheral blood mononuclear cells (hPBMC); test: human PBMC assay, Example 3 (oligo and PLGA added at the same time, 48 well plates); details: for IFN-α / IFN-γ: oligo 20 μg/ml, PLGA 250 μg/ml, 24 hours; for IFN-α Mean / IFN-γ Mean: mean of donors 28033, 28034
Procedure: (§1) Hexameric oligonucleotides were tested for immunomodulatory activity alone and complexed with lactic acid/glycolic acid copolymer microcarrier beads using a human peripheral blood mononuclear cells (hPBMC) assay. Peripheral blood was collected from healthy volunteers by venipuncture using heparinized syringes. Blood was layered onto a FICOLL® (Amersham Pharmacia Biotech) cushion and centrifuged. hPBMCs, located at the FICOLL® interface, were collected, then washed twice with cold phosphate buffered saline (PBS). The cells were resuspended and cultured in 48 well plates at 2×10^6 cells/mL at 37° C. in RPMI 1640 with 10% heat-inactivated human AB serum plus 50 units/mL penicillin, 50 μg/mL streptomycin, 300 μg/mL glutamine, 1 mM sodium pyruvate, and 1×MEM non-essential amino acids (NEAA).
(§2) Oligonucleotides were tested as single agents, or in combination with PLGA microspheres (unmodified or cationic). All oligonucleotides contained 100% phosphorothioate linkages and were tested at 20 μg/ml. The PLGA microcarriers were used at 250 μg/ml. When oligos were tested with PLGA microcarriers, the oligo and the microcarriers were added at the same time to the culture. The cells were cultured in the in the presence of test samples for 24 hours, then cell-free medium was collected from each well and assayed for IFN-γ and IFN-α concentration. Two different oligonucleotides were used as controls: a first oligonucleotide known to have immunostimulatory activity (a 22mer oligonucleotide containing an ISS (“ISS+,” 5′-[…]-3′(SEQ ID NO:2)) and a second oligonucleotide of similar sequence but lacking immunostimulatory activity (“ISS−,” 5′-[…]-3′ (SEQ ID NO:1)). SAC (PANSORBIN® CalBiochem, 1/5000 dilution) and a untreated culture were used as additional positive and negative controls, respectively. SAC contains Staph. aureus (Cowan I) cell material. All samples were assayed in duplicate.
(§3) IFN-γ and IFN-α were assayed using CYTOSCREEN™ ELISA kits from BioSource International, Inc., according to the manufacturer's instructions.

[2] = system: human peripheral blood mononuclear cells (hPBMC); test: human PBMC assay, Example 6
Procedure: as §1, §2, §3
(§4) The immunomodulatory activity of the oligonucleotides used in Examples 3 and 4 was confirmed with the human PBMC assay using PBMCs from an additional four donors (donors 28051-28054). Oligonucleotides were tested alone or in combination with cationic PLGA as described in Example 3, except that 96 well plates were used instead of 48 well plates and the oligonucleotides were premixed with the cationic microspheres at room temperature for 15 minutes before they were added to the culture, rather than being added simultaneously to the culture.
Additional oligonucleotides were tested for immunomodulatory activity in the human PBMC assay. Oligonucleotides were tested alone or in combination with cPLGA as described in Example 5.
Additional oligonucleotides were tested using hPBMCs from volunteers 154-157 using the same assay. Results, which are shown in Table 7, confirm the activity of oligonucleotides fitting the formula 5′-X1TCGX2-3′, where the oligonucleotide is a 3-6mer, X1 is zero or one nucleotide and X2 is zero to three nucleotides.

[3] = system: human peripheral blood mononuclear cells (hPBMC); test: human PBMC assay, Example 7 (oligo 20 μg/ml, cPLGA 100 μg/ml); details: for IFN-α Mean / IFN-γ Mean: mean of donors 28115-28118
Procedure: as §1, §2, §3, §4
Additional oligonucleotides, some incorporating modified bases, were tested for immunomodulatory activity in the human PBMC assay. Oligonucleotides were tested alone or in combination with cPLGA as described in Example 5. The oligonucleotides were premixed with the cationic PLGA microspheres for 15 minutes at room temperature at concentrations of 20 μg/ml and 100 μg/ml, respectively.

[4] = system: human peripheral blood mononuclear cells (hPBMC); test: human PBMC assay, Example 5 (96 well plates, premixed); details: for IFN-α Mean / IFN-γ Mean: mean of donors 28051-28054
Procedure: as §1, §2, §3, §4

[5] = system: human peripheral blood mononuclear cells (hPBMC); test: human PBMC assay, Example 4 (oligos and PLGA premixed 15 minutes); details: for IFN-α Mean / IFN-γ Mean: mean of donors 28044, 28045
Procedure: as §1, §2, §3
Additional hexameric and pentameric oligonucleotides were tested for immunomodulatory activity in the PBMC assay. Oligonucleotides 6-6 (5′-TCGAGA-3′), 6-8 (5′-GTCGAC-3′), 6-9 (5′-GTCGTT-3′), 6-2 (5′-TCGTTT-3′), 6-3 (5′-TTCGTT-3′), 6-4 (5′-TTTCGT-3′), 5-1 (5′-TCGTC-3′), and 5-2 (5′-TCGTT-3′) were tested alone or in combination with cationic PLGA as described in Example 3 except that the oligos and PLGA were premixed for 15 minutes room temperature before addition to the cultures. The test articles were assayed using PBMC isolated from donors 28044 and 28045.

Substance: 5′-TGACTGTGAACCTTAGAGATGA-3′ (DNA, all phosphorothioate, methylation of C not given here) [ISS−, reference compound]
- IFN-α ([1]; donor 28033): 0 pg/mL
- IFN-γ ([1]; donor 28033): 3 pg/mL
- IFN-α ([1]; donor 28034): 31 pg/mL
- IFN-γ ([1]; donor 28034): 8 pg/mL
- IFN-α Mean [1]: 15 pg/mL
- IFN-γ Mean [1]: 5 pg/mL
- IFN-α ([2]; donor 28075): 41 pg/mL
- IFN-γ ([2]; donor 28075): 15 pg/mL
- IFN-α ([2]; donor 28076): 23 pg/mL
- IFN-γ ([2]; donor 28076): 15 pg/mL
- IFN-α ([2]; donor 28077): 54 pg/mL
- IFN-γ ([2]; donor 28077): 12 pg/mL
- IFN-α ([2]; donor 28078): 27 pg/mL
- IFN-γ ([2]; donor 28078): 16 pg/mL
- IFN-α Mean ([2]; mean of donors 28075-28078): 36 pg/mL
- IFN-γ Mean ([2]; mean of donors 28075-28078): 15 pg/mL
- IFN-α Mean ([2]; mean of volunteers 154-157): 0 pg/mL
- IFN-γ Mean ([2]; mean of volunteers 154-157): 43 pg/mL
- IFN-α ([2]; volunteer 154): 0 pg/mL
- IFN-γ ([2]; volunteer 154): 0 pg/mL
- IFN-α ([2]; volunteer 155): 0 pg/mL
- IFN-γ ([2]; volunteer 155): 17 pg/mL
- IFN-α ([2]; volunteer 156): 0 pg/mL
- IFN-γ ([2]; volunteer 156): 58 pg/mL
- IFN-α ([2]; volunteer 157): 0 pg/mL
- IFN-γ ([2]; volunteer 157): 98 pg/mL
- IFN-α ([3]; donor 28115): 0 pg/mL
- IFN-γ ([3]; donor 28115): 20 pg/mL
- IFN-α ([3]; donor 28116): 0 pg/mL
- IFN-γ ([3]; donor 28116): 22 pg/mL
- IFN-α ([3]; donor 28117): 0 pg/mL
- IFN-γ ([3]; donor 28117): 334 pg/mL
- IFN-α ([3]; donor 28118): 0 pg/mL
- IFN-γ ([3]; donor 28118): 14 pg/mL
- IFN-α Mean [3]: 0 pg/mL
- IFN-γ Mean [3]: 98 pg/mL
- IFN-α ([4]; donor 28051): 0 pg/mL
- IFN-γ ([4]; donor 28051): 5 pg/mL
- IFN-α ([4]; donor 28052): 3 pg/mL
- IFN-γ ([4]; donor 28052): 2 pg/mL
- IFN-α ([4]; donor 28053): 1 pg/mL
- IFN-γ ([4]; donor 28053): 3 pg/mL
- IFN-α ([4]; donor 28054): 5 pg/mL
- IFN-γ ([4]; donor 28054): 2 pg/mL
- IFN-α Mean [4]: 2 pg/mL
- IFN-γ Mean [4]: 3 pg/mL
- IFN-α ([5]; donor 28044): 0 pg/mL
- IFN-γ ([5]; donor 28044): 410 pg/mL
- IFN-α ([5]; donor 28045): 0 pg/mL
- IFN-γ ([5]; donor 28045): 51 pg/mL
- IFN-α Mean [5]: 0 pg/mL
- IFN-γ Mean [5]: 231 pg/mL

Substance: 5′-TGACTGTGAACGTTCGAGATGA-3′ [ISS+, reference compound]
- IFN-α ([1]; donor 28033): 28 pg/mL
- IFN-γ ([1]; donor 28033): 99 pg/mL
- IFN-α ([1]; donor 28034): 106 pg/mL
- IFN-γ ([1]; donor 28034): 223 pg/mL
- IFN-α Mean [1]: 67 pg/mL
- IFN-γ Mean [1]: 161 pg/mL
- IFN-α ([2]; donor 28075): 0 pg/mL
- IFN-γ ([2]; donor 28075): 48 pg/mL
- IFN-α ([2]; donor 28076): 73 pg/mL
- IFN-γ ([2]; donor 28076): 76 pg/mL
- IFN-α ([2]; donor 28077): 54 pg/mL
- IFN-γ ([2]; donor 28077): 15 pg/mL
- IFN-α ([2]; donor 28078): 94 pg/mL
- IFN-γ ([2]; donor 28078): 72 pg/mL
- IFN-α Mean ([2]; mean of donors 28075-28078): 55 pg/mL
- IFN-γ Mean ([2]; mean of donors 28075-28078): 53 pg/mL
- IFN-α Mean ([2]; mean of volunteers 154-157): 12 pg/mL
- IFN-γ Mean ([2]; mean of volunteers 154-157): 317 pg/mL
- IFN-α ([2]; volunteer 154): 31 pg/mL
- IFN-γ ([2]; volunteer 154): 211 pg/mL
- IFN-α ([2]; volunteer 155): 0 pg/mL
- IFN-γ ([2]; volunteer 155): 131 pg/mL
- IFN-α ([2]; volunteer 156): 15 pg/mL
- IFN-γ ([2]; volunteer 156): 86 pg/mL
- IFN-α ([2]; volunteer 157): 0 pg/mL
- IFN-γ ([2]; volunteer 157): 840 pg/mL
- IFN-α ([3]; donor 28115): 54 pg/mL
- IFN-γ ([3]; donor 28115): 156 pg/mL
- IFN-α ([3]; donor 28116): 29 pg/mL
- IFN-γ ([3]; donor 28116): 125 pg/mL
- IFN-α ([3]; donor 28117): 17 pg/mL
- IFN-γ ([3]; donor 28117): 497 pg/mL
- IFN-α ([3]; donor 28118): 0 pg/mL
- IFN-γ ([3]; donor 28118): 46 pg/mL
- IFN-α Mean [3]: 25 pg/mL
- IFN-γ Mean [3]: 206 pg/mL
- IFN-α ([4]; donor 28051): 12 pg/mL
- IFN-γ ([4]; donor 28051): 66 pg/mL
- IFN-α ([4]; donor 28052): 28 pg/mL
- IFN-γ ([4]; donor 28052): 20 pg/mL
- IFN-α ([4]; donor 28053): 12 pg/mL
- IFN-γ ([4]; donor 28053): 72 pg/mL
- IFN-α ([4]; donor 28054): 12 pg/mL
- IFN-γ ([4]; donor 28054): 23 pg/mL
- IFN-α Mean [4]: 16 pg/mL
- IFN-γ Mean [4]: 45 pg/mL
- IFN-α ([5]; donor 28044): 401 pg/mL
- IFN-γ ([5]; donor 28044): 2180 pg/mL
- IFN-α ([5]; donor 28045): 39 pg/mL
- IFN-γ ([5]; donor 28045): 669 pg/mL
- IFN-α Mean [5]: 220 pg/mL
- IFN-γ Mean [5]: 1425 pg/mL
